Measured values published in US5162304A, “Pharmaceutical compositions and methods for treatment and prophylaxis of cancer” (priority 1990, dated 1992).

Key:
[1] = tested on: Ehrlich's mouse ascites carcinoma cells; assay: Tests 4, 5 and Comparing Test 1: cytocidal activity of bleomycin alone or with isomonool, Ehrlich's cells; type: cell-based
Description: (§1) The cytocidal activity (IC90) of bleomycin was evaluated when used alone or used in combination with 14-methyl-1-pentadecanol or 14-methyl-1-hexadecanol, using Ehrlich's mouse ascites carcinoma cells and human lung tumor A549 cells.

[2] = tested on: human lung carcinoma A549 cells; assay: Tests 4, 5 and Comparing Test 1: cytocidal activity of bleomycin alone or with isomonool, A549 cells; type: cell-based
Description: as §1

[3] = tested on: Ehrlich's mouse ascites carcinoma cells; assay: Test 7 and Comparing Tests 3 and 4: survival of mice inoculated with Ehrlich's mouse ascites carcinoma cells; type: in vivo, male C57BL/6 mice; conditions: bleomycin alone; for Number of surviving mice: of 8
Description: 5-week old male C57BL/6 mice were intraperitoneally inoculated with 10^6 Ehrlich's mouse ascites carcinoma cells. Since 24 hours later, a 50 μg/ml solution of bleomycin in 0.25% HCO-60 solution in physiological saline, and a suspension containing 50 μg/ml of bleomycin and 5 μg/ml of 14-methyl-1-pentadecanol were intraperitoneally injected at a dose of 10 mg/kg·day and 11 mg/kg·day, respectively, to each 8 animals/group for 5 days. The survival time of the injected mice was then followed.

[4] = tested on: Ehrlich's ascites cells; assay: Test 6 and Comparing Test 2: uptake of bleomycin into Ehrlich's ascites cells; type: cell-based, mouse; conditions: bleomycin alone

## bleomycin [reference compound]
[1]
  Cytocidal activity (IC90) of bleomycin alone: 20 µg/mL
[2]
  Cytocidal activity (IC90) of bleomycin alone: 44 µg/mL
[3]; i.p., 10 mg/kg.day for 5 days (Comparing test 3)
  mean survival time after inoculation: 33.3 days
[3]; day 14
  Number of surviving mice: 7
[3]; day 15
  Number of surviving mice: 6
[3]; day 16
  Number of surviving mice: 6
[3]; day 17
  Number of surviving mice: 6
[3]; day 18
  Number of surviving mice: 6
[3]; day 19
  Number of surviving mice: 6
[3]; day 20
  Number of surviving mice: 6
[3]; day 23
  Number of surviving mice: 4
[3]; day 33
  Number of surviving mice: 3
[3]; day 41
  Number of surviving mice: 2
[3]; day 45
  Number of surviving mice: 2
[3]; day 52
  Number of surviving mice: 2
[3]; day 57
  Number of surviving mice: 1
[3]; day 60
  Number of surviving mice: 1
[4]; 30 min
  Bleomycin uptake: 0.03 μg/mg Ehrlich's cell
[4]; 60 min
  Bleomycin uptake: 0.06 μg/mg Ehrlich's cell
[4]; 120 min
  Bleomycin uptake: 0.12 μg/mg Ehrlich's cell
[4]; 180 min
  Bleomycin uptake: 0.13 μg/mg Ehrlich's cell
[4]; Initial
  Bleomycin uptake: 0 μg/mg Ehrlich's cell
